Measured values as given in ChEMBL document CHEMBL1129226, “Synthesis of conformationally restricted progestational 13-ethylsteroids” (1997).

System: Oryctolagus cuniculus
Experiment: In vivo activity using McPhail test after oral dose
Assay type: functional

## C#C[C@]1(O)C=CC2C3CCC4=CC(=O)CCC4C3CCC21CC (stereo partly drawn)
  ED2: 0.008 mg/kg

## C#C[C@]1(O)CCC2C3CCC4=CC(=O)CCC4C3[C@H]3CC(=C)[C@]21C3 (stereo partly drawn)
  ED2: 1 mg/kg

## C#C[C@]1(O)CCC2C3CCC4=CC(=O)CCC4C3[C@H]3C[C@H](C)[C@]21C3 (stereo partly drawn)
  ED2: ~0.032 mg/kg

## C#C[C@]1(O)CCC2C3CCC4=CC(=O)CCC4C3CCC21CC (stereo partly drawn)
  ED2: 0.04 mg/kg

## C1=C2CC3(CCC2C2C(C1)C1CCC4(OCCO4)[C@@]14C[C@@H]2C[C@]41CO1)OCCO3 (stereo partly drawn)
  ED2: >4 mg/kg

## C#C[C@]1(O)CCC2C3CCC4=CC(=O)CCC4C3C(=C)CC21CC (stereo partly drawn)
  ED2: 0.015 mg/kg

## C#C[C@]1(O)CCC2C3CCC4=CC(=O)CCC4C3[C@H]3C[C@@H](C)[C@]21C3 (stereo partly drawn)
  ED2: 0.125 mg/kg

## C#C[C@]1(O)CC[C@H]2[C@@H]3CCC4=CC(=O)CC[C@@H]4[C@H]3CC[C@@]21C [NORETHINDRONE]
  ED2: ~0.5 mg/kg
